Activity calls are given as the source filed them. No cut-off for these calls is given here.
The compounds below were run against T1, Alpha-amylase 1A (Homo sapiens) (UniProt P0DUB6) (assay: Activity of human saliva alpha-amylase assessed as decrease in fluorescence intensity measured for every 3 mins for 30 mins by FRET analysis).
T1 sequence (whole entry): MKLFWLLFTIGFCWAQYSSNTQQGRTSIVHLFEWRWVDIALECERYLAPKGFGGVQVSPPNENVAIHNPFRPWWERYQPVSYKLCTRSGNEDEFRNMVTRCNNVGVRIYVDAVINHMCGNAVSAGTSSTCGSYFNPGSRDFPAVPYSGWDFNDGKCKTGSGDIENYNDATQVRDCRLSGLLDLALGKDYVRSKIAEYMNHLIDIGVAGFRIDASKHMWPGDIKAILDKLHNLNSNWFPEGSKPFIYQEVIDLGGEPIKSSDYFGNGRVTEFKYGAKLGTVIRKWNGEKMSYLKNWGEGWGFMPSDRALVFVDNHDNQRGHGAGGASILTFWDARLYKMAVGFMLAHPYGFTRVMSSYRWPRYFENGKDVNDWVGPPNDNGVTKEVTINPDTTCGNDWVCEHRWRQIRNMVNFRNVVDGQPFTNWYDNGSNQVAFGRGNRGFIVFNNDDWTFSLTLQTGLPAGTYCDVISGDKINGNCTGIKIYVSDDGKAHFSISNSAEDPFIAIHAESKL
In the case of `CN(C)c1cccc2c(S(=O)(=O)NCCSCCCCCS[C@@H]3O[C@H](CO)[C@@H](O[C@H]4O[C@H](CO)[C@@H](O[C@H]5O[C@H](CO)[C@@H](O[C@H]6O[C@H](COCc7ccc8ccccc8c7)[C@@H](O)[C@H](O)[C@H]6O)[C@H](O)[C@H]5O)[C@H](O)[C@H]4O)[C@H](O)[C@H]3O)cccc12`, the Activity is reported as “Active”.
`CN(C)c1cccc2c(S(=O)(=O)NCCSCCCCCS[C@@H]3O[C@H](CO)[C@@H](O[C@H]4O[C@H](CO)[C@@H](O[C@H]5O[C@H](CO)[C@@H](O[C@H]6O[C@H](CO)[C@@H](O[C@H]7O[C@H](CO)[C@@H](O[C@H]8O[C@H](CO)[C@@H](O[C@H]9O[C@H](COCc%10ccc%11ccccc%11c%10)[C@@H](O)[C@H](O)[C@H]9O)[C@H](O)[C@H]8O)[C@H](O)[C@H]7O)[C@H](O)[C@H]6O)[C@H](O)[C@H]5O)[C@H](O)[C@H]4O)[C@H](O)[C@H]3O)cccc12` was tested, and the Activity was “Active”.
`CN(C)c1cccc2c(S(=O)(=O)NCCSCCCCCS[C@@H]3O[C@H](CO)[C@@H](O[C@H]4O[C@H](CO)[C@@H](O[C@H]5O[C@H](CO)[C@@H](O[C@H]6O[C@H](CO)[C@@H](O[C@H]7O[C@H](CO)[C@@H](O[C@H]8O[C@H](COCc9ccc%10ccccc%10c9)[C@@H](O)[C@H](O)[C@H]8O)[C@H](O)[C@H]7O)[C@H](O)[C@H]6O)[C@H](O)[C@H]5O)[C@H](O)[C@H]4O)[C@H](O)[C@H]3O)cccc12` was tested, and the Activity was “Active”.
With `CN(C)c1cccc2c(S(=O)(=O)NCCSCCCCCS[C@@H]3O[C@H](CO)[C@@H](O[C@H]4O[C@H](CO)[C@@H](O[C@H]5O[C@H](CO)[C@@H](O[C@H]6O[C@H](CO)[C@@H](O[C@H]7O[C@H](COCc8ccc9ccccc9c8)[C@@H](O)[C@H](O)[C@H]7O)[C@H](O)[C@H]6O)[C@H](O)[C@H]5O)[C@H](O)[C@H]4O)[C@H](O)[C@H]3O)cccc12` the Activity was “Active”.
With `CN(C)c1cccc2c(S(=O)(=O)NCCSCCCCCS[C@@H]3O[C@H](CO)[C@@H](O[C@H]4O[C@H](CO)[C@@H](O[C@H]5O[C@H](COCc6ccc7ccccc7c6)[C@@H](O)[C@H](O)[C@H]5O)[C@H](O)[C@H]4O)[C@H](O)[C@H]3O)cccc12` the Activity was “inactive”.
`CN(C)c1cccc2c(S(=O)(=O)NCCSCCCCCS[C@@H]3O[C@H](CO)[C@@H](O[C@H]4O[C@H](COCc5ccc6ccccc6c5)[C@@H](O)[C@H](O)[C@H]4O)[C@H](O)[C@H]3O)cccc12` was tested, and the Activity was “inactive”.

Reference: ChEMBL document CHEMBL1933022, “Synthetic studies of bi-fluorescence-labeled maltooligosaccharides as substrates for α-amylase on the basis of fluorescence resonance energy transfer (FRET)” (Bioorg Med Chem, 2012)
